Experimental findings from publication PMC6433934, “Preclinical Evaluation of Bispecific Adaptor Molecule Controlled Folate Receptor CAR-T Cell Therapy With Special Focus on Pediatric Malignancies” (Frontiers in Oncology, 2019) are described below.

SMILES strings stand for the structures.

Data set [1] can be described thus: EC17 dose finding safety study, tumor-free mice. To be noted: ~10 million E2-CAR-T cells. On the set-up: key to CRS grade: 0: normal (no CRS); 1: mild; 2: light-to-moderate; 3–4: severe CRS; 5: death (due to severe CRS). It is filed as in vivo. The source says:
For MDA-MB-231 studies, mice received a high dose (~10 million) of a “clinical facsimile” of E2-CAR-T cells (~39% EGFRt+) with a low differentiation profile. Two days later, we started them with 3 different treatment regimens of EC17 at an average tumor size of ~293 ± 39 mm^3. The EC17 dosing was given once-a-week (SIW) at 500 nmol/kg on Mondays, or as escalating doses of 5, 50, or 100, and 500 or 1,000 nmol/kg on Monday, Thursday, and Monday with a 6 day break in-between cycles. Control mice were left untreated (received CAR-T cells but no EC17). For comparison, a cohort of tumor-free littermates also received the same number of CAR-T cells without or with EC17 SIW at 500 nmol/kg. To study the effect of high dietary folate, two sets of NSG mice were placed on either a FA-replete diet (4 mg/kg, Envigo, Indianapolis, IN) or a FA-deficient diet (TestDiet, St. Louis, MO) upon arrival. […]
Depending on the CAR-T cell dose and how EC17 is administered, tumor-bearing mice receiving FITC-specific CAR-T cells can experience severe CRS and varying degrees of body weight loss ([27], [33], [34]). […] On the days immediately following each EC17 dose, animals were scored and rescue agents such as sodium fluorescein, folic acid and leucovorin were used to mitigate CRS toxicity ([33]). […]

Data set [2] has as its system THP1-FRβ. The data set can be described thus: AML study, intravenous xenografts, EC17 dosing regimens. It is filed as in vivo, NSG mice. The method, then: All animal care and use were performed according to NIH guidelines and in compliance with protocols approved by the Purdue University Animal Use and Care Committee. Female 4 to 5-weeks-old NOD/SCID gamma (NSG™) mice (stock number: 005557) were purchased from The Jackson Laboratory (Bar Harbor, ME). Unless specifically indicated, all animals were maintained on a FA-deficient diet (TestDiet, St. Louis, MO) upon arrival and throughout the study. To establish subcutaneous xenografts, MDA-MB-231 and HOS-FRα were implanted in the right flank region at 2.5 × 10^6 and 1 × 10^6 cells per animal, respectively. For intravenous xenografts, THP1-FRβ cells were inoculated at 5 × 10^6 cells per animal. Subcutaneous tumors were measured 2–3 times per week with a caliper and calculated using the ellipsoidal formula (length x width^2)/2. […] All animal doses (CAR-T cells, EC17, sodium fluorescein) were given intravenously.
For AML studies, mice were intravenously infused with THP1-FRβ tumor cells 1 day prior to receiving a low dose of ~6 million E2-CAR-T cells (~23% EGFRt+). At ~3.5 days post CAR-T cell infusion, EC17 was dosed in 3 different ways including (i) SIW at 500 nmol/kg, (ii) thrice at 5/50/500 nmol/kg on Monday/Wednesday/Friday followed by a 9 day break in between cycles (TIW On/Off), and iii) as escalating doses of 5/10/100 nmol/kg in Cycle 1, 5/30/300 nmol/kg in Cycle 2, and 5/50/500 nmol/kg in Cycle 3, all on Monday/Thursday/Monday with a 6 day break in between cycles (M/Th/M, On/Off). On day 31, satellite animals were harvested for quantification of CAR-positive T cells identified in the mouse blood as human CD3ε+ EGFRt+ events and calculated as absolute numbers per 100 μL of whole blood. Upon euthanasia or at the end of study on day 38, total tumor load in THP1-FRβ tumor-bearing mice was assessed by measuring GFP+ tumor cells in the blood by flow cytometry and collecting liver weight (with metastatic lesions) and total weight of nonliver macrometastases found in the body cavities. Tumor fragments of liver metastases were enzymatically digested into single-cell suspensions and viable cell populations were analyzed for the status of CAR-T cell exhaustion using anti-human PD1, LAG3, and TIM3 (clones EH12.1, T47-530, and 7D3, respectively).
(§1) Depending on the CAR-T cell dose and how EC17 is administered, tumor-bearing mice receiving FITC-specific CAR-T cells can experience severe CRS and varying degrees of body weight loss ([27], [33], [34]). Therefore, we developed a CRS grading system (0–5 scale) to empirically assess CRS toxicity from animals' gross morphology and social behavior to allow for better timing of CRS rescue. While grades 0 and 5 indicated normal (no CRS) or death (due to severe CRS), respectively, grades 1, 2, and 3–4 were considered mild, light-to-moderate, and severe CRS. In addition, all EC17 doses were intentionally given toward the end of any given day to allow potential CRS symptoms to develop overnight. On the days immediately following each EC17 dose, animals were scored and rescue agents such as sodium fluorescein, folic acid and leucovorin were used to mitigate CRS toxicity ([33]). In this particular instance, a batch of E2-CAR-T cells with a high EGFRt+ CD4/CD8 ratio (~93:7) was given to HOS-FRα tumor-bearing mice at a mixture of ~2.5 million CD8 and ~33 million CD4 on day 0. When EC17 was dosed, respectively, at 500, 100, and 500 nmol/kg on days 3, 10, and 12, low CRS (grades 1–2) was noted on days 4 and 11 but high CRS (grade 3) was noted on day 13. To mitigate the severe CRS toxicity, sodium fluorescein was intravenously administrated at ~96 mg/kg in the morning of day 13 and mouse plasma samples were collected 6 h later for analysis of CRS-associated cytokines.

In data set [3] the test system is HOS-FRα tumor-bearing mice. The data set can be described thus: Toxicity and CRS rescue with sodium fluorescein. The format is in vivo. The note with it: ~2.5 million CD8 and ~33 million CD4 E2-CAR-T cells. The method, then:
as §1

Take `Nc1nc2ncc(CNc3ccc(C(=O)NC(CCC(=O)NCCNC(=S)Nc4ccc(-c5c6ccc(=O)cc-6oc6cc(O)ccc56)c(C(=O)O)c4)C(=O)O)cc3)nc2c(=O)[nH]1` (centres unmarked) [EC17, FA-(γ)-ethylenediamine-FITC]: the CRS grade is 0 in data set [1] (2 weekly doses EC17 500 nmol/kg, 0–5 scale); 0–1 in data set [2] (EC17 M/Th/M dose escalation, Cycle 2 after 300 nmol/kg, ~6 million E2-CAR-T cells); 1–2 in data set [2] (EC17 SIW 500 nmol/kg, Cycles 2 and 3, ~6 million E2-CAR-T cells); 0–1 in data set [2] (EC17 TIW 5/50/500 nmol/kg on/off, ~6 million E2-CAR-T cells); 3 in data set [3] (day 13, after EC17 500 nmol/kg on day 12); 1–2 in data set [3] (days 4 and 11, after EC17 500 and 100 nmol/kg on days 3 and 10). The “CAR-T cell expansion by flow cytometry” value in data set [1] (EC17 SIW 500 nmol/kg) is “no CAR-T cell expansion was detected”. For the same molecule, the non-liver macrometastases entry in data set [2] (EC17 M/Th/M dose escalation at a slow pace per cycle) was “failed to control”; in data set [2] (EC17 SIW and TIW at 10-fold dose escalation (on/off)), “successfully controlled”. Besides, the cures entry in data set [2] (THP1-FRβ xenografts, EC17 plus E2-CAR-T cells) was “no cures”. For the same molecule, in data set [2] (any of the 3 EC17 regimens vs controls, ~6 million E2-CAR-T cells), the “circulating THP1-FRβ tumor cells in the blood” value is given as “effectively reduced”.
